Reference: patent publication US12193994B2, “Combination of a cell therapy and a gamma secretase inhibitor” (Juno Therapeutics, Inc., priority 2017, dated 2025)

Columns and labels:
[1] = tested on: RPMI-8226, OPM2, or MM1.S; test: Re-challenge of chronically stimulated anti-BCMA CAR+ T cells with target cells +/- LY3039478; format: cell-based, human
Protocol: The effect of a gamma secretase inhibitor compound, LY3039478, on the cytotoxicity of anti-BCMA CAR+ T cells after long-term CAR-specific stimulation was assessed. Anti-BCMA CAR+ T cell compositions, generated as described in Example 2 containing anti-BCMA CAR-expressing CD4+ and CD8+ T cells, were incubated with 50 μg/mL BCMA-Fc conjugated beads for 7 days, under conditions designed to functionally exhaust the CAR T cells.
The CAR-T cells then were re-challenged with antigen-expressing target cells in the presence or absence of LY3039478. […] To assess cytolytic activity, the target cells were labeled with NucLight Red (NLR) to permit tracking by fluorescent microscopy. Killing activity was assessed by measuring the loss of viable target cells over time, as determined by loss of fluorescent signal over time by kinetic fluorescence microscopy (using the INCUCYTE® Live Cell Analysis System, Essen Bioscience). Target fluorescence was monitored over time and was normalized to target cell count.
A killing index was determined as the inverse of the area under the curve (AUC) for target fluorescence over time, and was normalized relative to DMSO vehicle control. […]

[2] = tested on: OPM2 or RPMI-8226 target cells; test: Cytolytic activity of anti-BCMA CAR-T cells co-cultured with target cells +/- LY3039478 (IncuCyte); format: cell-based, human
Source text: In this study, to generate anti-BCMA CAR-expressing T cells, CD4+ and CD8+ T cells were isolated by immunoaffinity-based enrichment from leukapheresis samples from two healthy donor subjects and one myeloma patient. Isolated T cells were activated and transduced with a viral vector encoding an anti-BCMA CAR. The CAR contained an scFv antigen-binding domain specific for BCMA having a VH domain and a VL domain with amino acid sequences set forth in SEQ ID NOS: 24 and 25, respectively, a spacer, a spacer having an amino acid sequence set forth in SEQ ID NO:31, a CD28 transmembrane region, a 4-1BB costimulatory signaling region and a CD3-zeta derived intracellular signaling domain. The nucleic acid construct encoding the CAR also included a truncated receptor sequence for use as a transduction marker, separated from the CAR sequence by a self-cleaving T2A sequence.
(§1) Anti-BCMA CAR-T cells generated as described in this Example above were cultured at 37° C. with either OPM2 or RPMI-8226 target cells at an effector to target (E:T) ratio of 0.3:1. The target cells were labeled with NucLight Red (NLR), to permit tracking of target cells by microscopy. Cultures were incubated in the absence of LY3039478 or in the presence of LY3039478 at concentrations of 0.1 nM, 1 nM, 10 nM, 100 nM, 1000 nM, 10000 nM or 100000 nM (the range covering the estimated human pharmacokinetic range is shown by the boxes in FIGS. 3A-3D). As a control, target cells were incubated with LY3039478 but without culture with CAR-T cells. Cytolytic activity was assessed by measuring the loss of viable target cells after about 150 hours, as determined by red fluorescent signal (using the IncuCyte® Live Cell Analysis System, Essen Bioscience). The area under the curve for killing observed during the culture period (˜150 hours) was determined. Percent lysis (% killing) was determined by normalizing the AUC for killing to cultures incubated without the inhibitor.

[3] = tested on: OPM2 or RPMI-8226 target cells; test: Cytokine production by anti-BCMA CAR-T cells co-cultured with target cells +/- LY3039478; format: cell-based, human; details: 24 hours co-culture, vs absence of LY3039478
Protocol: (§2) The production of cytokines by anti-BCMA CAR-T cells in the presence or absence of LY3039478 was assessed by monitoring cytokine levels in the supernatants of co-cultures of CAR-T cells with BCMA-expressing target cells. CAR-T cells generated as described in this Example above were cultured with either OPM2 or RPMI-8226 target cells in the absence of LY3039478 or in the presence of LY3039478 at concentrations of 0.1 nM, 1 nM, 10 nM, 100 nM, 1000 nM, 10000 nM or 100000 nM (the range covering the estimated human pharmacokinetic range is shown by the boxes in FIGS. 3A-3D). Culture supernatants were harvested after 24 hours, and IFNγ and IL-2 were measured from the culture supernatants.

OPM2 target cells [4] = test: Similar study: concentration dependence of anti-BCMA CAR-T cytolytic function; format: cell-based; details: Homo sapiens, OPM-2; OPM2, one exemplary donor; read-out: increasing anti-BCMA CAR-T killing of BCMA-expressing target cells, IC50
Protocol: as §1
(§3) A similar study was carried out to further assess the effects of different concentrations of LY3039478, including concentrations within the estimated Cmax/Cmin for the inhibitor, on the cytolytic function of anti-BCMA CAR-T cells against OPM2 target cells.

multiple myeloma tumor = test: BCMA expression on tumors after oral LY3039478 in an alternative multiple myeloma tumor cell model; format: in vivo, mice; details: 0.1 mg/kg or 1 mg/kg, two oral administrations
Protocol: Specifically, NOD.Cg.PrkdescidIL2rgtm1 Wjl/SzJ (NSG) mice were injected subcutaneously (s.c.) with 1E+07 RPMI-8226 cells modified to express GFP and firefly luciferase (RPMI-8226 ffluc) and tumors were allowed to grow. […]
FIG. 6 depicts analysis of blood samples, taken at 0, 0.5, 2, 6, 18, 24, 36, and 48 hour post-administration, for plasma levels of the drug. […] Tumor cells at 2 hours, 24 hours or 48 hours after administration of LY3039478 or vehicle control in the study were assessed for surface expression of BCMA.

OPM2 target cells [5] = test: Similar study: concentration dependence of cytokine production by anti-BCMA CAR-T cells; format: cell-based; details: Homo sapiens, OPM-2; OPM2, one exemplary donor, IFN-gamma (FIG. 3E); read-out: increasing cytokine production by anti-BCMA CAR-T cells, IC50
Protocol: as §2
as §3, with “ability” for “cytolytic function”, “generated as described in this Example 2 above to produce cytokines following co-culture with” for “against”

C[C@H](NC(=O)CCC(F)(F)F)C(=O)N[C@@H]1C(=O)N(CCO)c2ncccc2-c2ccccc21 [LY3039478, 4,4,4-trifluoro-N-[(1S)-2-[[(7S)-5-(2-hydroxyethyl)-6-oxo-7H-pyrido[2,3-d][3]benzazepin-7-yl]amino]-1-methyl-2-oxo-ethyl]butanamide]
function of chronically stimulated anti-BCMA CAR-expressing T cells to produce cytokines (TNF-alpha, IFN-gamma, IL-2) ([1]; 1 μM LY3039478, 24 hours, E:T 0.3:1 and 1:1): improved function | cytolytic activity of chronically stimulated anti-BCMA CAR+ T cells ([1]; 1 μM LY3039478 vs DMSO, E:T 0.3:1): improved cytolytic activity | cytolytic activity of anti-BCMA CAR T cells (% killing) ([2]; 0.1 nM to 100000 nM, E:T 0.3:1, about 150 hours, myeloma patient-derived CAR-T, OPM2 and RPMI-8226): increased the cytolytic activity | detrimental effects on CAR T cell function ([2]; 100 μM LY3039478): No detrimental effects | CAR-T function ([2]; CAR-T cells derived from the other donors): increase in CAR-T function | target survival ([2]; LY3039478 alone without CAR-T cells): No differences | production of IFN-gamma in supernatant [3]: increased | production of IL-2 in supernatant [3]: increased | IC50 (OPM2 target cells [4]): 0.1 to 0.25 nM | BCMA expression on tumors (multiple myeloma tumor): Increased BCMA expression | IC50 (OPM2 target cells [5]): 0.1 to 0.25 nM
